The experiment concerns Human dermal fibroblasts from Friedreich's Ataxia patients. As to the kind of experiment: Rescue of BSO-stressed FRDA fibroblasts (Calcein AM viability screen). Particulars: FRDA fibroblasts GM04078, 1 mM BSO, 48 h. It is filed as cell-based. Here is the method:
An initial screen was performed to identify compounds effective for the amelioration of redox disorders. Test samples, 4 reference compounds (idebenone, decylubiquinone, Trolox and alpha-tocopherol), and solvent controls were tested for their ability to rescue FRDA fibroblasts stressed by addition of L-buthionine-(S,R)-sulfoximine (BSO), as described in Jauslin et al., Hum. Mol. Genet. 11(24):3055 (2002), Jauslin et al., FASEB J. 17:1972-4 (2003), and International Patent Application WO 2004/003565. […] This specific BSO-mediated cell death can be prevented by administration of antioxidants or molecules involved in the antioxidant pathway, such as alpha-tocopherol, selenium, or small molecule glutathione peroxidase mimetics. However, antioxidants differ in their potency, i.e. the concentration at which they are able to rescue BSO-stressed FRDA fibroblasts.
MEM (a medium enriched in amino acids and vitamins, catalog no. 1-31F24-I) and Medium 199 (M199, catalog no. 1-21F22-I) with Earle's Balanced Salts, without phenol red, were purchased from Bioconcept. Fetal Calf Serum was obtained from PAA Laboratories. Basic fibroblast growth factor and epidermal growth factor were purchased from PeproTech. Penicillin-streptomycin-glutamine mix, L-buthionine (S,R)-sulfoximine, (+)-alpha-tocopherol, decylubiquinone, and insulin from bovine pancreas were purchased from Sigma. Trolox (6-Hydroxy-2,5,7,8-tetramethylchromane-2-carboxylic acid) was obtained from Fluka. Idebenone was obtained from Chemo Iberica. Calcein AM was purchased from Anaspec. Cell culture medium was made by combining 125 ml M199 EBS, 50 ml Fetal Calf Serum, 100 U/ml penicillin, 100 microgram/ml streptomycin, 2 mM glutamine, 10 microgram/ml insulin, 10 ng/ml EGF, and 10 ng/ml bFGF; MEM EBS was added to make the volume up to 500 ml. A 10 mM BSO solution was prepared by dissolving 444 mg BSO in 200 ml of medium (Invitrogen, Carlsbad, Ca.) with subsequent filter-sterilization. During the course of the experiments, this solution was stored at +4° C. The cells were obtained from the Coriell Cell Repositories (Camden, N.J.; repository number GM04078) and grown in 10 cm tissue culture plates. Every third day, they were split at a 1:3 ratio.
The test samples were supplied in 1.5 ml glass vials. The compounds were diluted with DMSO, ethanol or PBS to result in a 5 mM stock solution. Once dissolved, they were stored at −20° C. Reference antioxidants (idebenone, decylubiquinone, alpha-tocopherol and Trolox) were dissolved in DMSO.
Test samples were screened according to the following protocol:
A culture with FRDA fibroblasts was started from a 1 ml vial with approximately 500,000 cells stored in liquid nitrogen. Cells were propagated in 10 cm cell culture dishes by splitting every third day in a ratio of 1:3 until nine plates were available. Once confluent, fibroblasts were harvested. For 54 micro titer plates (96 well-MTP) a total of 14.3 million cells (passage eight) were re-suspended in 480 ml medium, corresponding to 100 microliters medium with 3,000 cells/well. The remaining cells were distributed in 10 cm cell culture plates (500,000 cells/plate) for propagation. The plates were incubated overnight at 37° C. in a atmosphere with 95% humidity and 5% CO2 to allow attachment of the cells to the culture plate.
10% DMSO (242.5 microliters) was added to a well of the microtiter plate. The test compounds were unfrozen, and 7.5 microliters of a 5 mM stock solution was dissolved in the well containing 242.5 microliters of 10% DMSO, resulting in a 150 micromolar master solution. Serial dilutions from the master solution were made. The period between the single dilution steps was kept as short as possible (generally less than 30 seconds). At least 4 hours after attachment into MTP, cells were then treated with the various compound dilutions.
Plates were kept overnight in the cell culture incubator. […]

Setting [1] is: Homo sapiens, average of three values, control compounds, read-out: EC50 Average.
[2] abbreviates: Homo sapiens, first of three experiments, read-out: EC50 Value 1.
The mark [3] stands for this setting: Homo sapiens, second of three experiments, read-out: EC50 Value 2.
Setting [4] is: Homo sapiens, third of three experiments, read-out: EC50 Value 3.
Where [5] appears, read: Homo sapiens, average, compounds of the invention, read-out: Ec50 Average.

By EC50 is commonly meant the concentration giving half of the maximal effect.

Read-outs that look alike come from different tables or passages of the source.

Take `COC1=C(OC)C(=O)C(CCCCCCCCCCO)=C(C)C1=O` [Idebenone, reference compound]: the EC50 by setting is: under setting [1], 1200 nM; under setting [2], 1500 nM; under setting [3], 1000 nM; under setting [4], 1000 nM.
On to `CC1=C(C)C(=O)C(CCc2nc3ccccc3s2)=C(C)C1=O`, for which the EC50 under setting [5] is 6 nM.
Consider `CC1=C(C)C(=O)C(CCCn2cnc3ccccc32)=C(C)C1=O`, for which the EC50 under setting [5] is 21 nM.
On the same count and under the same terms, the figure for `CC1=C(C)C(=O)C(CCCc2nc3ccc(Cl)cc3[nH]2)=C(C)C1=O` is 6 nM.
The same measure, in the same setting: the figure for `CC1=C(C)C(=O)C(CCCc2nc3cccnc3[nH]2)=C(C)C1=O` is 113 nM; for `CC1=C(C)C(=O)C(CCn2c(C)nc3ccccc32)=C(C)C1=O` it is 49 nM; for `CC1=C(C)C(=O)C(CCc2nc3ccccc3o2)=C(C)C1=O` it is 18 nM.
Same read-out and setting: in the case of `CC1=C(C)C(=O)C(CCCc2nc3cc(Cl)ccc3s2)=C(C)C1=O` it was 28 nM; in that of `CC1=C(C)C(=O)C(CCCc2nc3cc(C(F)(F)F)ccc3[nH]2)=C(C)C1=O`, 8 nM.
Take `CC1=C(C)C(=O)C(CCCc2nc3cc(C(F)(F)F)ccc3o2)=C(C)C1=O`: the EC50 under setting [5] is 27 nM.
With `CC1=C(C)C(=O)C(CCCc2nc3ccc(C(=O)NCCCO)cc3[nH]2)=C(C)C1=O`, under setting [5], the EC50 is more than 200 nM.
Consider `Cc1c(C)c2c(c(C)c1O)CC[C@@](C)(CCC[C@H](C)CCC[C@H](C)CCCC(C)C)O2` [alpha-tocopherol, (+)-alpha-tocopherol, reference compound], for which the EC50 by setting is: (average of three values, control compounds, read-out: EC50 Average) 300 nM; (first of three experiments, read-out: EC50 Value 1) 400 nM; (second of three experiments, read-out: EC50 Value 2) 150 nM; (third of three experiments, read-out: EC50 Value 3) 350 nM.
On to `CC1=C(C)C(=O)C(CCCc2nc3cccc(C)c3[nH]2)=C(C)C1=O`, for which the EC50 under setting [5] is 7 nM.
On the same count and under the same terms, in the case of `CC1=C(C)C(=O)C(CCCc2nc3ccccc3n2C)=C(C)C1=O` it was 25 nM.
`Cc1c(C)c2c(c(C)c1O)CCC(C)(C(=O)O)O2` (stereo not drawn) [Trolox, 6-Hydroxy-2,5,7,8-tetramethylchromane-2-carboxylic acid, reference compound]: the EC50 is, setting by setting: under setting [1], 8700 nM; under setting [2], 9000 nM; under setting [3], 9000 nM; under setting [4], 8000 nM.
Regarding `CC1=C(C)C(=O)C(CCCc2nc3ccc(F)cc3o2)=C(C)C1=O`, the concentration for a half-maximal effect (EC50) under setting [5] was 10 nM.
On the same count and under the same terms, the figure for `CC1=C(C)C(=O)C(CCCc2nc3ccccc3o2)=C(C)C1=O` is 20 nM; for `CC1=C(C)C(=O)C(CCCc2nc3cc(C)ccc3[nH]2)=C(C)C1=O` it is 21 nM.
As to `CCCCCCCCCCC1=C(C)C(=O)C(OC)=C(OC)C1=O` [decylubiquinone, reference compound], the EC50 is 38 nM under setting [1], 50 nM under setting [2], 35 nM under setting [3] and 30 nM under setting [4].
On to `CC1=C(C)C(=O)C(CCCn2c(C)nc3ccccc32)=C(C)C1=O`, for which, under setting [5], the EC50 is 26 nM.
Same read-out and setting: the figure for `CC1=C(C)C(=O)C(CCCc2nc3ccc(C)cc3o2)=C(C)C1=O` is 7 nM; for `CC1=C(C)C(=O)C(CCn2cnc3ccccc32)=C(C)C1=O` it is 28 nM.
The same measure, in the same setting: in the case of `CC1=C(C)C(=O)C(CCCc2nc3ccc(C(N)=O)cc3[nH]2)=C(C)C1=O` it was 80 nM.
On the same count and under the same terms, in the case of `CC1=C(C)C(=O)C(CCc2nc3ccccc3[nH]2)=C(C)C1=O` it was 20 nM.
As for `CC1=C(C)C(=O)C(CCCc2nc3cc(F)ccc3[nH]2)=C(C)C1=O`, under setting [5], the EC50 was 9 nM.
Same read-out and setting: in the case of `CC1=C(C)C(=O)C(CCCc2nc3cccc(F)c3[nH]2)=C(C)C1=O` it was 18 nM; in that of `CC1=C(C)C(=O)C(CCCc2nc3ccc(F)cc3[nH]2)=C(C)C1=O`, 29 nM; in that of `CC1=C(C)C(=O)C(CCc2ncc[nH]2)=C(C)C1=O`, 225 nM.
The same measure, in the same setting: in the case of `CC1=C(C)C(=O)C(CCCc2nc3ccccc3[nH]2)=C(C)C1=O` it was 14 nM; in that of `CC1=C(C)C(=O)C(CCCc2nc3ccccc3s2)=C(C)C1=O`, 6 nM; in that of `CC1=C(C)C(=O)C(CCc2ncc(C)s2)=C(C)C1=O`, 27 nM.
As for `CC1=C(C)C(=O)C(CCCn2cncn2)=C(C)C1=O`, the EC50 under setting [5] is 426 nM.
Still for that read-out and setting: the figure for `CC1=C(C)C(=O)C(CCCc2nc3ccc(C(=O)N4CCN(C)CC4)cc3[nH]2)=C(C)C1=O` is 92 nM.

These data come from patent publication US10189830B2, “Alkyl-heteroaryl substituted quinone derivatives for treatment of oxidative stress disorders” (BioElectron Technology Corporation, priority 2013, dated 2019).
